What was measured:
Assay in all cases: relative viability (nuclei count vs DMSO), 5 days (fraction); higher = more cells survive
ABC-1 = system: ABC-1
Outline: (§1)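 Relative viability was taken as the ratio of nuclei in treated wells to nuclei in vehicle wells. Lung cancer cell lines in 1536-well plates received compounds by pin tool one day after seeding, either one drug alone or a fixed anchor-drug dose plus five library-drug doses (not always all listed) in √10 steps. Nuclei were counted on 4× images after 5 days of treatment, and values are medians of duplicate plates.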

BEN = system: BEN
Outline: as §1

EPLC-272H = system: EPLC-272H
Outline: as §1

HCC-827 = system: HCC-827
Outline: as §1

HOP-62 = system: HOP-62
Outline: as §1

LU99A = system: LU99A
Outline: as §1

NCI-H1355 = system: NCI-H1355
Outline: as §1

NCI-H1666 = system: NCI-H1666
Outline: as §1

NCI-H1792 = system: NCI-H1792
Outline: as §1

NCI-H1975 = system: NCI-H1975
Outline: as §1

NCI-H2170 = system: NCI-H2170
Outline: as §1

NCI-H23 = system: NCI-H23
Outline: as §1

NCI-H2405 = system: NCI-H2405
Outline: as §1

NCI-H3122 = system: NCI-H3122
Outline: as §1

NCI-H322M = system: NCI-H322M
Outline: as §1

NCI-H358 = system: NCI-H358
Outline: as §1

NCI-H520 = system: NCI-H520
Outline: as §1

NCI-H596 = system: NCI-H596
Outline: as §1

NCI-H647 = system: NCI-H647
Outline: as §1

NCI-H727 = system: NCI-H727
Outline: as §1

NCI-H838 = system: NCI-H838
Outline: as §1

PC-14 = system: PC-14
Outline: as §1

UMC-11 = system: UMC-11
Outline: as §1

Cc1cnc(-c2cnc(NCCNc3ccc(C#N)cn3)nc2-c2ccc(Cl)cc2Cl)[nH]1 + CCNC(=O)c1noc(-c2cc(C(C)C)c(O)cc2O)c1-c1ccc(CN2CCOCC2)cc1 [Luminespib] (partner 0.01 µM)
relative viability (ABC-1; first compound 0.08 µM): 0.591 | relative viability (ABC-1; first compound 2.53 µM): 0.82 | relative viability (BEN; first compound 0.08 µM): 0.338 | relative viability (BEN; first compound 0.253 µM): 0.612 | relative viability (BEN; first compound 0.8 µM): 0.702 | relative viability (BEN; first compound 2.53 µM): 0.501 | relative viability (EPLC-272H; first compound 0.08 µM): 0.308 | relative viability (EPLC-272H; first compound 0.253 µM): 0.313 | relative viability (EPLC-272H; first compound 0.8 µM): 0.209 | relative viability (EPLC-272H; first compound 2.53 µM): 0.192 | relative viability (HCC-827; first compound 0.08 µM): 0.719 | relative viability (HCC-827; first compound 0.8 µM): 0.752 | relative viability (HCC-827; first compound 2.53 µM): 0.564 | relative viability (HOP-62; first compound 0.08 µM): 0.955 | relative viability (HOP-62; first compound 0.253 µM): 0.841 | relative viability (HOP-62; first compound 0.8 µM): 0.79 | relative viability (HOP-62; first compound 2.53 µM): 0.738 | relative viability (LU99A; first compound 0.08 µM): 0.243 | relative viability (LU99A; first compound 0.253 µM): 0.382 | relative viability (LU99A; first compound 0.8 µM): 0.261 | relative viability (LU99A; first compound 2.53 µM): 0.234 | relative viability (NCI-H1355; first compound 0.08 µM): 0.704 | relative viability (NCI-H1355; first compound 0.253 µM): 0.698 | relative viability (NCI-H1355; first compound 0.8 µM): 0.677 | relative viability (NCI-H1355; first compound 2.53 µM): 0.744 | relative viability (NCI-H1666; first compound 0.08 µM): 1.04 | relative viability (NCI-H1666; first compound 0.253 µM): 1.04 | relative viability (NCI-H1666; first compound 0.8 µM): 1.04 | relative viability (NCI-H1666; first compound 2.53 µM): 1.08 | relative viability (NCI-H1792; first compound 0.08 µM): 0.668 | relative viability (NCI-H1792; first compound 0.253 µM): 0.432 | relative viability (NCI-H1792; first compound 0.8 µM): 0.493 | relative viability (NCI-H1792; first compound 2.53 µM): 0.392 | relative viability (NCI-H1975; first compound 0.08 µM): 0.21 | relative viability (NCI-H1975; first compound 0.253 µM): 0.252 | relative viability (NCI-H1975; first compound 0.8 µM): 0.191 | relative viability (NCI-H1975; first compound 2.53 µM): 0.189 | relative viability (NCI-H2170; first compound 0.08 µM): 0.984 | relative viability (NCI-H2170; first compound 0.253 µM): 0.593 | relative viability (NCI-H2170; first compound 0.8 µM): 0.667 | relative viability (NCI-H2170; first compound 2.53 µM): 0.655 | relative viability (NCI-H23; first compound 0.08 µM): 0.22 | relative viability (NCI-H23; first compound 0.253 µM): 0.218 | relative viability (NCI-H23; first compound 0.8 µM): 0.216 | relative viability (NCI-H23; first compound 2.53 µM): 0.209 | relative viability (NCI-H2405; first compound 0.08 µM): 0.763 | relative viability (NCI-H2405; first compound 0.253 µM): 0.552 | relative viability (NCI-H2405; first compound 0.8 µM): 0.822 | relative viability (NCI-H2405; first compound 2.53 µM): 0.574 | relative viability (NCI-H3122; first compound 0.08 µM): 0.124 | relative viability (NCI-H3122; first compound 0.8 µM): 0.0778 | relative viability (NCI-H3122; first compound 2.53 µM): 0.0737 | relative viability (NCI-H322M; first compound 0.08 µM): 0.969 | relative viability (NCI-H322M; first compound 0.253 µM): 0.808 | relative viability (NCI-H322M; first compound 0.8 µM): 0.857 | relative viability (NCI-H322M; first compound 2.53 µM): 1.03 | relative viability (NCI-H358; first compound 0.08 µM): 0.24 | relative viability (NCI-H358; first compound 0.253 µM): 0.317 | relative viability (NCI-H358; first compound 0.8 µM): 0.283 | relative viability (NCI-H358; first compound 2.53 µM): 0.0322 | relative viability (NCI-H520; first compound 0.08 µM): 0.257 | relative viability (NCI-H520; first compound 0.253 µM): 0.203 | relative viability (NCI-H520; first compound 0.8 µM): 0.227 | relative viability (NCI-H520; first compound 2.53 µM): 0.208 | relative viability (NCI-H596; first compound 0.08 µM): 1.06 | relative viability (NCI-H596; first compound 0.253 µM): 1.03 | relative viability (NCI-H596; first compound 0.8 µM): 1.05 | relative viability (NCI-H596; first compound 2.53 µM): 1.24 | relative viability (NCI-H647; first compound 0.08 µM): 0.144 | relative viability (NCI-H647; first compound 0.253 µM): 0.131 | relative viability (NCI-H647; first compound 0.8 µM): 0.135 | relative viability (NCI-H647; first compound 2.53 µM): 0.166 | relative viability (NCI-H727; first compound 0.08 µM): 0.272 | relative viability (NCI-H727; first compound 0.253 µM): 0.345 | relative viability (NCI-H727; first compound 0.8 µM): 0.362 | relative viability (NCI-H727; first compound 2.53 µM): 0.337 | relative viability (NCI-H838; first compound 0.08 µM): 0.326 | relative viability (NCI-H838; first compound 0.253 µM): 0.287 | relative viability (NCI-H838; first compound 0.8 µM): 0.333 | relative viability (NCI-H838; first compound 2.53 µM): 0.301 | relative viability (PC-14; first compound 0.08 µM): 0.151 | relative viability (PC-14; first compound 0.253 µM): 0.24 | relative viability (PC-14; first compound 0.8 µM): 0.107 | relative viability (PC-14; first compound 2.53 µM): 0.18 | relative viability (UMC-11; first compound 0.08 µM): 1.02 | relative viability (UMC-11; first compound 0.253 µM): 0.934 | relative viability (UMC-11; first compound 0.8 µM): 1.03 | relative viability (UMC-11; first compound 2.53 µM): 0.995
